Data set [1] concerns the target T1, Ribosomal protein S6 kinase alpha-1 (Homo sapiens, UniProt Q15418). As to the kind of experiment: Inhibition of full length recombinant His-tagged human RSK1 expressed in baculovirus expression system using biotin-labelled AGAGRSRHSSYPAGT-OH as substrate in presence of ATP.
In data set [2] the target is T2, Ribosomal protein S6 kinase alpha-3 (Homo sapiens, UniProt P51812). As to the kind of experiment: Inhibition of full length recombinant His-tagged human RSK2 expressed in baculovirus expression system using biotin-labelled AGAGRSRHSSYPAGT-OH as substrate in presence of ATP.
T2 sequence (P51812 whole entry): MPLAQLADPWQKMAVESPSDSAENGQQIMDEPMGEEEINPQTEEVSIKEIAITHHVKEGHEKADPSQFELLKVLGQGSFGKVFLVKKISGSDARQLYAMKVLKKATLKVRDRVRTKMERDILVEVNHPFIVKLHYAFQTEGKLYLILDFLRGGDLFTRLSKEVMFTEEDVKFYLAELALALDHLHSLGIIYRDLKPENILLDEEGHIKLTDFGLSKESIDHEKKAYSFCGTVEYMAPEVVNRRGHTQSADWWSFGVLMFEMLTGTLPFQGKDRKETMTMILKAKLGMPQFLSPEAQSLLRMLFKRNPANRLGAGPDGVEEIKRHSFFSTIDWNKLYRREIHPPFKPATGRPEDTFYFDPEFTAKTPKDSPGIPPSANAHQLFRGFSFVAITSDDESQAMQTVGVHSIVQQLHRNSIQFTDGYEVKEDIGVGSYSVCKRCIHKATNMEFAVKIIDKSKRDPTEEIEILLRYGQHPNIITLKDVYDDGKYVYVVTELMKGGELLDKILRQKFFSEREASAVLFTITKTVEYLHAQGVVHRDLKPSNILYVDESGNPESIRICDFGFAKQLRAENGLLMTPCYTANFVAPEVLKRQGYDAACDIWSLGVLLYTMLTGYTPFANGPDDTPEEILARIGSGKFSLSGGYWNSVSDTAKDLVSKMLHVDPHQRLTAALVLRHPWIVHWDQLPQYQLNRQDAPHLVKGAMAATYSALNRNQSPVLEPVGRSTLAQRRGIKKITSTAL
Data set [3] deals with T3, Ribosomal protein S6 kinase alpha-2 (Homo sapiens, UniProt Q15349). As to the kind of experiment: Inhibition of full length recombinant GST-tagged human RSK3 expressed in insect cell using biotin-labelled AGAGRSRHSSYPAGT-OH as substrate in presence of ATP.
T3 sequence (Q15349 whole entry): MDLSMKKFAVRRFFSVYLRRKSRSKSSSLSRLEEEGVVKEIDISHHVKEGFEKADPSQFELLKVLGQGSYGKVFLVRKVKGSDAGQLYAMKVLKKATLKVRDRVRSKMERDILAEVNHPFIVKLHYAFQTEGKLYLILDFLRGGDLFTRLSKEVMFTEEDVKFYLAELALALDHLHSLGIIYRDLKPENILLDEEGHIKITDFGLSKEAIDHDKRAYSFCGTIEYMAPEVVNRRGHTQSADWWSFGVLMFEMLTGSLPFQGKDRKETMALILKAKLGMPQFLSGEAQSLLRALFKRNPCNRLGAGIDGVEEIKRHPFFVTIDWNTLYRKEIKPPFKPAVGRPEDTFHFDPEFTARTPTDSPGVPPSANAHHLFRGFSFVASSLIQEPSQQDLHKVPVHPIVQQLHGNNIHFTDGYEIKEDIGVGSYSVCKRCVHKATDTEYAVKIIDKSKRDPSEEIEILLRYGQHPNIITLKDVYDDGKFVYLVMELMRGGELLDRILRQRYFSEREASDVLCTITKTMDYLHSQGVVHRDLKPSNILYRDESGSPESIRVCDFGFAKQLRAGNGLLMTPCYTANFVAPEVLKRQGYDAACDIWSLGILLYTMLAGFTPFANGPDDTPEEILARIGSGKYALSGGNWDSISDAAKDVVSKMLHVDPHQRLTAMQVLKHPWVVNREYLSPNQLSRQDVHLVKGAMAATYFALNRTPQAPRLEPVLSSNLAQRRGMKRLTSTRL
Data set [4] concerns the target T1, Ribosomal protein S6 kinase alpha-1. As to the kind of experiment: Inhibition of RSK1 in human TE-10 cells assessed as suppression of EIF4B phosphorylation at 1 to 10 uM measured after 24 hrs by Western blot analysis. As to conditions: dose 1-10 µM. The data set is classed as cell-based.
The target is the same in data set [5]. As to the kind of experiment: Inhibition of RSK1 in human TE-10 cells assessed as suppression of P27KIP1 phosphorylation at 1 to 10 uM measured after 24 hrs by Western blot analysis. The class given is cell-based. As to conditions: dose 1-10 µM.
Data set [6] concerns the target T2, Ribosomal protein S6 kinase alpha-3. As to the kind of experiment: Inhibition of RSK2 in human TE-10 cells assessed as suppression of creb-phosphorylation at 1 to 10 uM measured after 24 hrs by Western blot analysis. The data set is classed as cell-based. As to conditions: dose 1-10 µM.
The target is the same in data set [7]. As to the kind of experiment: Inhibition of RSK2 in human TE-10 cells assessed as suppression of HSP27 at residue 32 phosphorylation at 1 to 10 uM measured after 24 hrs by Western blot analysis. The data set is classed as cell-based. The note with it: dose 1-10 µM.
For data set [8] the target is unchanged. As to the kind of experiment: Inhibition of RSK2 in human TE-10 cells assessed as suppression of HSP27 at residue 33 phosphorylation at 1 to 10 uM measured after 24 hrs by Western blot analysis. The class given is cell-based. The note with it: dose 1-10 µM.
Data set [9] deals with T3, Ribosomal protein S6 kinase alpha-2. As to the kind of experiment: Inhibition of RSK3 in human TE-10 cells assessed as suppression of c-fos phosphorylation at 1 to 10 uM measured after 24 hrs by Western blot analysis. The data set is classed as cell-based. As to conditions: dose 1-10 µM.
For data set [10] the target is unchanged. As to the kind of experiment: Inhibition of RSK3 in human TE-10 cells assessed as suppression of HistoneH3 phosphorylation at residue 34 at 1 to 10 uM measured after 24 hrs by Western blot analysis. The class given is cell-based. As to conditions: dose 1-10 µM.
For data set [11] the target is unchanged. As to the kind of experiment: Inhibition of RSK3 in human TE-10 cells assessed as suppression of HistoneH3 phosphorylation at residue 35 at 1 to 10 uM measured after 24 hrs by Western blot analysis. The data set is classed as cell-based. The note with it: dose 1-10 µM.
For data set [12], the target named is T1, Ribosomal protein S6 kinase alpha-1. As to the kind of experiment: Inhibition of RSK1 (unknown origin) at 100 nM relative to control.
Data set [13] has as its target T2, Ribosomal protein S6 kinase alpha-3. As to the kind of experiment: Inhibition of RSK2 (unknown origin) at 100 nM relative to control.
Data set [14] concerns the target T3, Ribosomal protein S6 kinase alpha-2. As to the kind of experiment: Inhibition of RSK3 (unknown origin) at 100 nM relative to control.
For data set [15], the system named is TE-10. As to the kind of experiment: Inhibition of cell invasion in human TE-10 cells measured after 24 hrs by Giemsa staining based transwell invasion assay. The data set is classed as functional. The note with it: TE-10, 24 h.
For data set [16], the system named is TE-10. As to the kind of experiment: Antiproliferative activity against human TE-10 cells assessed as inhibition of cell proliferation measured up to 48 hrs by CCK-8 assay. The data set is classed as functional, cell-based.
Data set [17] has as its system TE-10. As to the kind of experiment: Antitumor activity against human TE-10 cells xenografed in nude mouse assessed as tumor growth inhibition at 25 mg/kg, ip administered for 20 consecutive days by caliper method relative to control. As to conditions: TE-10, ip, 480 h, time 20 day, read-out: TGI. The class given is functional.
The subject of data set [18] is TE-10. As to the kind of experiment: Antitumor activity against human TE-10 cells xenografed in nude mouse assessed as tumor growth inhibition at 50 mg/kg, ip administered for 20 consecutive days by caliper method relative to control. The note with it: TE-10, ip, 480 h, time 20 day, read-out: TGI. The data set is classed as functional.
Data set [19] relates to Mus musculus. As to the kind of experiment: In vivo inhibition of RSK4 in nude mouse xenografted with human TE-10 cells assessed as suppression of RPS6 phosphorylation at 25 to 50 mg/kg, ip administered for 20 consecutive days. The class given is functional, organism-based. As to conditions: dose lower […], dose upper 50.0 mg/kg, time 20.0 day.
In data set [20] the test system is Mus musculus. As to the kind of experiment: In vivo inhibition of RSK4 in nude mouse xenografted with human TE-10 cells assessed as suppression of GSK3beta phosphorylation at 25 to 50 mg/kg, ip administered for 20 consecutive days. The class given is functional, organism-based. As to conditions: dose lower […], dose upper 50.0 mg/kg, time 20.0 day.
Data set [21] in a line: Toxicity in nude mouse xenografted with human TE-10 cells assessed as effect on body weight loss at 25 to 50 mg/kg, ip administered for 20 consecutive days. The class given is organism-based. As to conditions: in vivo, 480 h, dose 25-50 mg/kg, time 20 day.
Data set [22] in a line: Toxicity in nude mouse xenografted with human TE-10 cells assessed as effect on organ damage at 25 to 50 mg/kg, ip administered for 20 consecutive days. The class given is organism-based. The note with it: in vivo, 480 h, dose 25-50 mg/kg, time 20 day.
The nature of data set [23]: Toxicity in nude mouse xenografted with human TE-10 cells assessed as morphological changes in liver at 25 to 50 mg/kg, ip administered for 20 consecutive days by hematoxylin-eosin staining based analysis. The class given is organism-based. The note with it: in vivo, 480 h, dose 25-50 mg/kg, time 20 day.
A short description of data set [24]: Toxicity in nude mouse xenografted with human TE-10 cells assessed as morphological changes in lung at 25 to 50 mg/kg, ip administered for 20 consecutive days by hematoxylin-eosin staining based analysis. The class given is organism-based. As to conditions: in vivo, 480 h, dose 25-50 mg/kg, time 20 day.
Data set [25] can be described thus: Toxicity in nude mouse xenografted with human TE-10 cells assessed as morphological changes in kidney at 25 to 50 mg/kg, ip administered for 20 consecutive days by hematoxylin-eosin staining based analysis. The class given is organism-based. The note with it: in vivo, 480 h, dose 25-50 mg/kg, time 20 day.
Data set [26] in a line: Toxicity in nude mouse xenografted with human TE-10 cells assessed as morphological changes in heart at 25 to 50 mg/kg, ip administered for 20 consecutive days by hematoxylin-eosin staining based analysis. As to conditions: in vivo, 480 h, dose 25-50 mg/kg, time 20 day. The class given is organism-based.
Data set [27] is described as follows: Clearance in iv dosed Sprague-Dawley rat. The data set is classed as ADME, organism-based. As to conditions: in vivo.
The nature of data set [28]: Half life in iv dosed Sprague-Dawley rat. The class given is ADME, organism-based. As to conditions: in vivo.
Data set [29] is described as follows: Volume of distribution at steady state in iv dosed Sprague-Dawley rat. The class given is ADME, organism-based. As to conditions: in vivo, read-out: Vdss.

The text below walks through data of ChEMBL document CHEMBL4840336, “Discovery, Optimization, and Structure-Activity Relationship Study of Novel and Potent RSK4 Inhibitors as Promising Agents for the Treatment of Esophageal Squamous Cell Carcinoma” (J Med Chem, 2021).

Active and inactive are the calls of the source. The calls are words filed in the database; no cut-off is given here.

T1 sequence (Q15418 whole entry): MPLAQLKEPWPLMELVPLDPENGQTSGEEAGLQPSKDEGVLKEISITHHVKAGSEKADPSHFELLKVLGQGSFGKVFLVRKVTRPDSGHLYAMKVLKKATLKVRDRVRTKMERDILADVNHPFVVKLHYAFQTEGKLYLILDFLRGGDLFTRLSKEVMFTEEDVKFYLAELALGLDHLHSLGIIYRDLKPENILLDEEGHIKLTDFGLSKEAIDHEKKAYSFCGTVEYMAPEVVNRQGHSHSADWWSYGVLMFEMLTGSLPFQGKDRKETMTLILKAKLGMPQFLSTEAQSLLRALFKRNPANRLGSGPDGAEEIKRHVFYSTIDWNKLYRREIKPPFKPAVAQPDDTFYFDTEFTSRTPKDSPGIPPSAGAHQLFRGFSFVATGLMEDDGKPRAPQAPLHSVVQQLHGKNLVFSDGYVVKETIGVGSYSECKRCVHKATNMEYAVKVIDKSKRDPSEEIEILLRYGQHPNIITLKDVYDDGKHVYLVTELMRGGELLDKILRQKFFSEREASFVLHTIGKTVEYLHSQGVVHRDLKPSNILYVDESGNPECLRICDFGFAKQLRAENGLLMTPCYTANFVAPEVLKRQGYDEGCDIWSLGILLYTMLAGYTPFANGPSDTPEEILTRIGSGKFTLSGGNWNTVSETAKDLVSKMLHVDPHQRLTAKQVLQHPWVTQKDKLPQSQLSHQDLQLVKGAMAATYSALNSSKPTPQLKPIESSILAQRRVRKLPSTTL

Regarding `Oc1c(F)cc(-c2cnccc2-c2ccc(N3CCOCC3)cc2)cc1F`, the results for the IC50 in data set [1], in data set [2] and in [3] were 5 nM, 6 nM and 13 nM, respectively.
For `CC(C)C1OC(=O)N(C2CCCC2)c2nc(Nc3cc(F)c(O)c(F)c3)ncc21` (centres undefined), the inhibition result in data set [4], in [5], in data set [6], in [7], in data set [8] and in data set [9] was “inactive” throughout. Moreover, the inhibition entry (in data set [10]; in data set [11]; in the data set on Mus musculus [19]; in the data set on Mus musculus [20]) was “inactive” in each case. The inhibition in data set [12] is above 90%; in data set [13] it was above 90%; in data set [14], above 90%; in the data set with TE-10 [16] (time hrs <=48) it was “Dose-Dependent Effect”. The IC50 in the data set on TE-10 [15] amounted to 983 nM; in the data set with TE-10 [16] (TE-10, 48 h) it was 570 nM. In the data set on TE-10 [17], the inhibition in vivo at 25 mg/kg was found to be 73.4%. The inhibition in vivo at 50 mg/kg with TE-10 [18] was determined as 48.7%. For the same compound, the Activity result in [21], in data set [22], in data set [23], in data set [24], in data set [25] and in data set [26] was “Non-Toxic” throughout. The compound also had a clearance in [27] of 67.5 mL/min/kg. In data set [28], this compound had a half-life of 55.2 min. For the same compound, in [29], the Vd was 1.28 L/kg.
As to `CN1CCN(c2ccc(-c3ccncc3-c3cc(F)c(O)c(F)c3)cc2)CC1`, the IC50 was found to be 6 nM in data set [1], 4 nM in [2] and 4 nM in data set [3].
Consider `CC(C)CCN1c2nc(Nc3cc(F)c(O)c(F)c3)ncc2N(C)C(=O)C1C` (centres undefined), for which the inhibition in vivo at 50 mg/kg in the data set with TE-10 [18] was found to be 41.6%.
